Source: ChEMBL document CHEMBL1135848, “Novel substituted 4-aminomethylpiperidines as potent and selective human beta3-agonists. Part 2: arylethanolaminomethylpiperidines” (Bioorg Med Chem Lett, 2002)

Tests used:
[1] = target: T1, Beta-3 adrenergic receptor (Homo sapiens, UniProt P13945); experiment: Beta-3 adrenergic receptor agonist activity was determined by a measurement of increased cAMP levels in CHO cells expressing human Beta-3-adrenoceptor; IA is Inactive; type: functional, cell-based
Target sequence in this assay (P13945 whole entry): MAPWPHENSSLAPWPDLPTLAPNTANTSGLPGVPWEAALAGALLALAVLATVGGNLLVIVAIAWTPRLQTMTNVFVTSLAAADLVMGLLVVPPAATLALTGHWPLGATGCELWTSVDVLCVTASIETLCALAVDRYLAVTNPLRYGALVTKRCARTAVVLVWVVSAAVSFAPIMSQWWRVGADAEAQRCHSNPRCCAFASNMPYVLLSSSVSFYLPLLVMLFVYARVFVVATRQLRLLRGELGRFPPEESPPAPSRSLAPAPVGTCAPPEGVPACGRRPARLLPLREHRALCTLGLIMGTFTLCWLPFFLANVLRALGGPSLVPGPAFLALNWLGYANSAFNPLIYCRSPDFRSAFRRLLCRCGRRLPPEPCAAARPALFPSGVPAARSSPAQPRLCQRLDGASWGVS

[2] = target: T1, Beta-3 adrenergic receptor; experiment: Beta-3 adrenergic receptor agonist activity as increased cAMP levels in CHO cells expressing human Beta-3-adrenoceptor; type: functional, cell-based
Target sequence in this assay (P13945 whole entry): as above

[3] = target: T2, Beta-2 adrenergic receptor (Homo sapiens, UniProt P07550); experiment: Beta-2 adrenergic receptor agonist activity as increased cAMP levels in CHO cells expressing human Beta-2-adrenoceptor; type: functional, cell-based
T2 sequence (P07550 whole entry): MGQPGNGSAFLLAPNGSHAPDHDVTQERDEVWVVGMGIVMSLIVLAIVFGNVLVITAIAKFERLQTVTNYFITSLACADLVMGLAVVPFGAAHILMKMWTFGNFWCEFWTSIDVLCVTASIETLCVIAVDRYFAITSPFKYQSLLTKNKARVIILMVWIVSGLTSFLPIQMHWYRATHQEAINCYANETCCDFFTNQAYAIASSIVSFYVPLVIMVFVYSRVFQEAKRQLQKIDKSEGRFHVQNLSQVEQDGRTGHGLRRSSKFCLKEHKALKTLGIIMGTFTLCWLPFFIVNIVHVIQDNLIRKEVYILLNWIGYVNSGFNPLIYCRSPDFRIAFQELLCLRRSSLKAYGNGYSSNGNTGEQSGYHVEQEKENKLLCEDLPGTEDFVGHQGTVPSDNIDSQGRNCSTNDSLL

[4] = target: T3, Beta-1 adrenergic receptor (Homo sapiens, UniProt P08588); experiment: Beta-1 adrenergic receptor agonist activity as increased cAMP levels in CHO cells expressing human Beta-1-adrenoceptor; type: functional, cell-based
Target sequence in this assay (P08588 whole entry): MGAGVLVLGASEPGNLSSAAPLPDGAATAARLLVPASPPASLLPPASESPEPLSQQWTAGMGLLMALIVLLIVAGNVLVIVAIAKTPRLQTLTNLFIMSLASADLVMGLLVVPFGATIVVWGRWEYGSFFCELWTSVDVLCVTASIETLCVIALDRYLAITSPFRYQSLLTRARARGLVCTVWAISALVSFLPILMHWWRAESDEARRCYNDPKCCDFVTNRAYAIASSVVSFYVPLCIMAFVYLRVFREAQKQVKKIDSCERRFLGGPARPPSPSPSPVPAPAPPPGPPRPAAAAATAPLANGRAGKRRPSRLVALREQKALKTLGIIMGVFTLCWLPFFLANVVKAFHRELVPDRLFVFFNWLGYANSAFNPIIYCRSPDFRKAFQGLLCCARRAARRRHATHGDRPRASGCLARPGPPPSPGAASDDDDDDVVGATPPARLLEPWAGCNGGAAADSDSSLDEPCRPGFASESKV

[5] = target: T1, Beta-3 adrenergic receptor; experiment: Human Beta-3 adrenergic receptor intrinsic activity (IA) as maximal response relative to isoproterenol at […]; type: functional
Target sequence in this assay (P13945 whole entry, looked up): as the sequence (P13945 whole entry) above

[6] = target: T2, Beta-2 adrenergic receptor; experiment: Beta-2 adrenergic receptor agonist activity was determined by a measurement of increased cAMP levels in CHO cells expressing human Beta-2 adrenergic receptor; type: functional, cell-based
[7] = target: T2, Beta-2 adrenergic receptor; experiment: Binding affinity of compound against Beta-2 adrenergic receptor was determined
[8] = target: T3, Beta-1 adrenergic receptor; experiment: (§1) Binding affinity of compound against Beta-1 adrenergic receptor was determined
Target sequence in this assay (P08588 whole entry): as the sequence (P08588 whole entry) above

[9] = target: T1, Beta-3 adrenergic receptor; experiment: Evaluated in vivo using transgenic mice containing the human Beta-3-Adrenoceptor and increase in themogenesis was determined; type: functional, organism-based; settings: Mus musculus
Target sequence in this assay (P13945 whole entry, looked up): as the sequence (P13945 whole entry) above

[10] = target: T3, Beta-1 adrenergic receptor; experiment: as §1; type: functional
Target sequence in this assay (P08588 whole entry): as the sequence (P08588 whole entry) above

[11] = target: T3, Beta-1 adrenergic receptor; experiment: Human Beta-1 adrenergic receptor determined as the maximal response divided by the maximal response of isoproterenol at […].; type: functional
Target sequence in this assay (P08588 whole entry, looked up): as the sequence (P08588 whole entry) above

SMILES	EC50 [2] [nM]	EC50 [3] [nM]	EC50 [4] [nM]	Intrinsic activity [5]	further results
CCCCCCCCNC(=O)Nc1ccc(S(=O)(=O)N2CCC(CNC[C@H](O)c3ccc4[nH]ccc4c3)CC2)cc1					EC50 [1]: Not Active
CS(=O)(=O)Nc1cc([C@@H](O)CNCC2CCN(S(=O)(=O)c3ccc(NC(=O)N[C@@H](Cc4ccccc4)C(=O)O)cc3)CC2)ccc1O	31	20	520	1.2	
CS(=O)(=O)Nc1cc([C@@H](O)CNCC2CCN(S(=O)(=O)c3ccc(NC(=O)NCc4cc(F)ccc4F)cc3)CC2)ccc1O	5		3160	0.93	EC50 [6]: 30 nM
CC(C)C[C@H](NC(=O)c1ccc(N2CCC(CNC[C@H](O)c3ccc(O)c(NS(C)(=O)=O)c3)CC2)cc1)C(=O)O		1000	1860	1	
CCCCCCCCNC(=O)Nc1ccc(S(=O)(=O)N2CCC(CNC[C@H](O)c3cc(NS(C)(=O)=O)c4[nH]ccc4c3)CC2)cc1					EC50 [1]: Not Active
CS(=O)(=O)Nc1cc([C@@H](O)CNCC2CCN(S(=O)(=O)c3ccc(-n4cc(C(=O)O)cn4)cc3)CC2)ccc1O		10	1000	0.93	
CC(C)N(Cc1cc(F)ccc1F)C(=O)Nc1ccc(S(=O)(=O)N2CCC(CNC[C@H](O)c3ccc(O)c(NS(C)(=O)=O)c3)CC2)cc1	27	12	6300	0.93	
CS(=O)(=O)Nc1cc([C@@H](O)CNCC2CCN(S(=O)(=O)c3ccc(-n4cc(CC(=O)O)c5ccccc54)cc3)CC2)ccc1O		30	30	0.96	Ki [7]: 180 nM; Ki [8]: 240 nM
CCCCCCCCC(=O)Nc1ccc(S(=O)(=O)N2CCC(CNC[C@H](O)c3ccc(O)c(NS(C)(=O)=O)c3)CC2)cc1	6	30	730	1	Increase [9]: 10%; Ki [10]: 6600 nM; Ki [7]: 140 nM
CS(=O)(=O)Nc1cc([C@@H](O)CNCC2CCN(c3ccc(C(=O)N[C@@H](CC(=O)O)C(=O)O)cc3)CC2)ccc1O		5	580	0.95	
CS(=O)(=O)Nc1cc([C@@H](O)CNCC2CCN(S(=O)(=O)c3ccc(-n4ccc5c(C(=O)O)cccc54)cc3)CC2)ccc1O		60	50	1	
CS(=O)(=O)Nc1cc([C@@H](O)CNCC2CCN(c3ccc(C(=O)N[C@@H](Cc4ccccc4)C(=O)O)cc3)CC2)ccc1O	31	20000	520	1.2	Intrinsic activity [11]: 0.6
